# Reference: patent US4062964A, “Antifertility-combinations” (Ciba-Geigy Corporation, priority 1976, dated 1977)
# Read-outs that look alike come from different tables or passages of the source.
# Experiments:
# [1] = test system: pregnant rats; assay: Resorption of embryos by s.c. prostaglandins in pregnant rats; assay type: in vivo, rat; details: for Fetuses / Resorptions / Total Implants: days 4-7
# Procedure: (§1) The efficacy of the compositions according to the invention is demonstrable in animal tests, using advantageously mammals, such as rats, hamsters or baboons, as test objects. Thus, for example, adult female rats weighing 190-250 grams are housed in a "reverse room" as described in Contraception 3, 347 (1971), with the exception that the animals have 14 hours of light between 5 P.M. and 7 A.M., and 10 hours of darkness from 7 A.M. to 5 P.M. They are placed with adult male rats from 10 A.M. to 2 P.M. (i.e. "their midnight" ± 2 hours) following which vaginal smears are obtained.
# (§2) Said antifertility compounds may be administered orally, e.g. in suspension with the excipient compraising 3% (by weight) of carboxymethylcellulose, 1.05% methylcellulose, 0.8% sodium chloride, 0.1% polysorbate 80 and 0.002% thimerosal in water, as a single dose on day 5 of pregnancy (i.e. the day after implantation unless otherwise specified). Prostaglandins may be injected subcutaneously twice (9 A.M. and 3 P.M.) on days 4-7 in a conventional 0.1M phosphate buffer at pH = 7.45. Aminoglutethimide phosphate can also be administered in aqueous solution orally, subcutaneously, intraperitoneally or intravenously. The rats are sacrificed on day 10 or 11 of pregnancy and the uterus is examined for living and dead fetuses and implantation sites. The terms "abortion" and "resorption" are used interchangeably because by day 10 or 11 the uterine scars resulting from either event are indistinguishable by gross inspection.
# However, when the compounds were injected twice daily (9 a.m. and 3 p.m.) in adequate doses on days 4-7 of gestation, implantation occured at the normal time but this was then followed by resorption of the embryos. […]
# [2] = test system: pregnant hamsters; assay: Antifertility ED50 in pregnant hamsters; assay type: in vivo, hamster; details: for ED50: Mesocricetus auratus
# Procedure: (§3) Said compositions are administered to pregnant Lakeview hamsters arriving at day 1 postcoitus, which are maintained in a day-night reversed room (11 A.M. to 11 P.M.). Food and water is given ad libitum. Six hamsters per group are used (3 per cage) and each test is carried out with a control group receiving said excipients only. The orally administered AGT is given for 3 consecutive days starting on day 3 postcoitus, at a rate of 5 ml/kg body weight, and these animals are sacrificed on day 10 to 12 postcoitus. The subcutaneously administered TPF is given once on day 5 postcoitus only, at a volume of 0.2 ml per animal, and these animals are sacrificed on day 8 postcoitus. The uterus of each animal is inspected and implantation sites are counted and recorded according to viable or resorbed fetuses. Percent inhibition is determined by comparison of treated groups over the control group.
# [3] = test system: pregnant rats; assay: Combined treatment AGP and PGF2α, resorption of fetuses in pregnant rats; assay type: in vivo, rat
# Procedure: as §1, §2
# [4] = test system: progesterone secretion; details: pregnant and non-pregnant animals and human beings, background; cited from earlier work
# [5] = test system: conversion of cholesterol to pregnenolone; details: background; cited from earlier work
# [6] = test system: pregnant Lakeview hamsters; assay: Antifertility effect (percent of litter living) in pregnant hamsters, AGT p.o. and TPF s.c.; assay type: in vivo, hamster
# Procedure: Said active ingredients are administered in admixture with the following excipients:
# AGT + 3% corn starch + 5% polyethylene glycol 400 + 1 drop of polysorbate 80 per 10 ml of distilled water.
# TPF 10 mg per 0.1 ml of ethanol, which solution is diluted with the buffer prepared from 19 ml of 0.2M aqueous monosodium phosphate and 81 ml of 0.2M aqueous disodium phosphate, corrected with the latter to the pH = 7.4.
# as §3
# [7] = test system: rats; assay: Activity of TPF in rats; details: rat, in vivo
# [8] = test system: rabbits; assay: Activity of TPF in rabbits; details: rabbit, in vivo
# [9] = test system: pregnant rats; assay: Abortifacient activity of AGP in pregnant rats (3 doses on day 9; large single or daily oral doses); assay type: in vivo, rat
# Procedure: as §1, §2
# [10] = test system: progesterone levels; assay: Progesterone levels in rats after aminoglutethimide phosphate; assay type: in vivo, rat; details: large single or daily oral doses
# [11] = sc, pregnant hamsters, approximative, read-out: ED50 s.c. for antifertility effects
# [12] = 100 mg/kg × 3 on day 9, i.p., 10 rats
# [13] = 100 mg/kg × 3 on day 9, i.v., 3 rats
# [14] = 100 mg/kg × 3 on day 9, p.o., 5 rats
smiles,measurement,setting,value
"CCCCC[C@H](O)/C=C/[C@@H]1[C@@H](C/C=C\CCCC(=O)O)[C@@H](O)C[C@H]1O [PGF2α, prostaglandin F2α]",Fetuses,[1]; 100 μg/rat s.c. × 2 daily,14.2 ± 0.7
same,Resorptions,[1]; 100 μg/rat s.c. × 2 daily,0
same,Total Implants,[1]; 100 μg/rat s.c. × 2 daily,14.2 ± 0.7
same,Fetuses,[1]; 200 μg/rat s.c. × 2 daily,14.4 ± 0.2
same,Resorptions,[1]; 200 μg/rat s.c. × 2 daily,0.2 ± 0.2
same,Total Implants,[1]; 200 μg/rat s.c. × 2 daily,14.6 ± 0.2
same,Fetuses,[1]; 400 μg/rat s.c. × 2 daily,0
same,Resorptions,[1]; 400 μg/rat s.c. × 2 daily,9.6 ± 2.6
same,Total Implants,[1]; 400 μg/rat s.c. × 2 daily,9.6 ± 2.6
same,relative activity versus PGE1 and PGE2,"[1]; s.c. twice daily, days 4-7, rats",about twice as active as PGE1 and PGE2
same,ED50,[2]; [11],0.1 mg/kg
same,ED50,"[2]; oral, pregnant hamsters, approximative, read-out: ED50 oral for antifertility effects",7.5 mg/kg
same,resorption of fetuses in rats,[3]; PGF2α 1 mg/kg s.c. on day 5 of pregnancy,did not induce resorption of fetuses
same,Fetuses,"[3]; PGF2α 1 mg/kg s.c., day 5",15.4 ± 0.6
same,Resorptions,"[3]; PGF2α 1 mg/kg s.c., day 5",0
same,Total Implants,"[3]; PGF2α 1 mg/kg s.c., day 5",15.4 ± 0.6
CCCCC[C@H](O)/C=C/[C@H]1[C@H](O)CC(=O)[C@@H]1CCCCCCC(=O)O [PGE1],Fetuses,[1]; 200 μg/rat s.c. × 2 daily,10.8 ± 2.7
same,Resorptions,[1]; 200 μg/rat s.c. × 2 daily,0
same,Total Implants,[1]; 200 μg/rat s.c. × 2 daily,10.8 ± 2.7
same,Fetuses,[1]; 400 μg/rat s.c. × 2 daily,10.6 ± 2.7
same,Resorptions,[1]; 400 μg/rat s.c. × 2 daily,0
same,Total Implants,[1]; 400 μg/rat s.c. × 2 daily,10.6 ± 2.7
same,Fetuses,[1]; 800 μg/rat s.c. × 2 daily,0
same,Resorptions,[1]; 800 μg/rat s.c. × 2 daily,7.0 ± 1.9
same,Total Implants,[1]; 800 μg/rat s.c. × 2 daily,7.0 ± 1.9
CCC1(c2ccc(N)cc2)CCC(=O)NC1=O (stereo not shown) [aminoglutethimide],progesterone secretion,[4],inhibits progesterone secretion
same,conversion of cholesterol to pregnenolone in the steroid pathway,[5],blocks the conversion of cholesterol to pregnenolone
"CC[C@]1(c2ccc(N)cc2)CCC(=O)NC1=O.CC[C@]1(c2ccc(N)cc2)CCC(=O)NC1=O.O.O=C(O)C(O)C(O)C(=O)O.O=C(O)C(O)C(O)C(=O)O [AGT, d-aminoglutethimide d-tartrate hemihydrate]",effective as antifertility agent,[6]; 500 mg/kg/p.o.,100%
same,PERCENT OF LITTER LIVING,"[6]; AGT 100 mg/kg p.o. day 3-5, TPF 0",90%
same,PERCENT OF LITTER LIVING,"[6]; AGT 250 mg/kg p.o. day 3-5, TPF 0",68%
same,PERCENT OF LITTER LIVING,"[6]; AGT 500 mg/kg p.o. day 3-5, TPF 0",0%
CCCCC[C@H](O)/C=C/[C@H]1[C@H](O)CC(=O)[C@@H]1C/C=C\CCCC(=O)O [PGE2],Fetuses,[1]; 200 μg/rat s.c. × 2 daily,10.6 ± 2.8
same,Resorptions,[1]; 200 μg/rat s.c. × 2 daily,0
same,Total Implants,[1]; 200 μg/rat s.c. × 2 daily,10.6 ± 2.8
same,Fetuses,[1]; 400 μg/rat s.c. × 2 daily,6.6 ± 2.8
same,Resorptions,[1]; 400 μg/rat s.c. × 2 daily,0
same,Total Implants,[1]; 400 μg/rat s.c. × 2 daily,6.6 ± 2.8
same,Fetuses,[1]; 800 μg/rat s.c. × 2 daily,0
same,Resorptions,[1]; 800 μg/rat s.c. × 2 daily,5.6 ± 2.6
same,Total Implants,[1]; 800 μg/rat s.c. × 2 daily,5.6 ± 2.6
same,ED50,[2]; [11],2 mg/kg
"O=C(O)CCCCCCC1OCC(O)C1/C=C/C(O)COc1cccc(C(F)(F)F)c1 (stereo not drawn) [TPF, 7-[3α-(3β-hydroxy-4-(m-trifluoromethylphenoxy)-1-trans-butenyl)-4β-hydroxy-tetrahydro-2β-furyl]-heptanoic acid]",activity in rats,[7],active in rats
same,oral potency relative to PGF2α,"[2]; oral, more potent than PGF2α",10-20 times
same,oral antifertility effectiveness,"[2]; oral, pregnant hamsters",orally effective
same,ED50 oral for antifertility effects,"[2]; oral, pregnant hamsters, approximative",0.31 mg/kg
same,ED50 s.c. for antifertility effects,"[2]; s.c., pregnant hamsters, approximative",0.1 mg/kg
same,activity in rabbits,[8],active in rats and rabbits
same,effective as antifertility agent,[6]; 25 μg/animal/s.c.,64%
same,PERCENT OF LITTER LIVING,"[6]; TPF 5 μg s.c. day 5, AGT 0 mg",98%
same,PERCENT OF LITTER LIVING,"[6]; TPF 10 μg s.c. day 5, AGT 0 mg",70%
same,PERCENT OF LITTER LIVING,"[6]; TPF 25 μg s.c. day 5, AGT 0 mg",36%
"CCC1(c2ccc(N)cc2)CCC(=O)NC1=O (stereo not shown) [AGP, aminoglutethimide phosphate]",Fetuses,[9]; [12],4.4 ± 2.2
same,Resorptions,[9]; [12],8.9 ± 2.0
same,Total Implants,[9]; [12],13.3 ± 0.6
same,Fetuses,[9]; [13],4.3 ± 4.3
same,Resorptions,[9]; [13],10.3 ± 4.7
same,Total Implants,[9]; [13],14.7 ± 0.7
same,Fetuses,[9]; [14],13.8 ± 0.9
same,Resorptions,[9]; [14],0.4 ± 0.4
same,Total Implants,[9]; [14],14.2 ± 0.7
same,abortifacient on day 9,"[9]; given every 8 hours, i.v. versus p.o., rats","abortifacient on day 9 when given every 8 hours i.v., but not p.o."
same,abortifacient activity,"[9]; large single or daily oral doses, rats",very resistant to the abortifacient activity
same,resorption of fetuses in rats,[3]; AGP 30 mg/kg s.c. days 3-5 of pregnancy,did not induce resorption of fetuses
same,Fetuses,"[3]; AGP 30 mg/kg s.c., days 3-5",12.2 ± 1.8
same,Resorptions,"[3]; AGP 30 mg/kg s.c., days 3-5",1.6 ± 1.1
same,Total Implants,"[3]; AGP 30 mg/kg s.c., days 3-5",13.8 ± 1.0
same,decrease of progesterone levels,[10],more than 70%
